system: perceived sweetness intensity; assay: Strawberry consumer panel; initial multiple regression of volatiles against perceived sweetness intensity independent of glucose, fructose or sucrose (Table 5); format: in vivo, human; conditions: initial step-wise multiple regression
Procedure: Step-wise multiple regressions of all volatile compounds against perceived intensity of sweetness is performed independent of either glucose, fructose, or sucrose concentration, separately (Table 5).
At least 100 grams or seven berries of each sample were removed from 4° C. dark overnight storage prior to volatile collection. Samples were homogenized in a blender prior to splitting into three 15 gram replicates for immediate capturing of volatile emission and remainder of sample frozen in N2 (I) and stored at −80° C. for later sugar and acid quantification.
Oven temperatures programmed from 40° C. (0.5 min hold) at 5° C. min^−1 to 250° C. (4 min hold). Signals captured with a flame ionization detector (FID) at 280° C. Peaks from FID signal were integrated manually with Chemstation B.04.01 software (Agilent Technologies, Santa Clara, Calif.). Volatile emission (ng gFW^−1 h^−1) calculated based on individual peak area relative to sample elution standard peak area.
All consumer panels were approved by the University of Florida Institutional Review Board. […] Ages of panelist ranged from 18 to 71, with a median age of 24. Panelists self-classified themselves as 98 White or Caucasian, 11 Black or African-American, 1 Native American, Alaska Native or Aleutian, 41 Asian/Pacific Islander, and 15 Other. […] Fresh, fully-ripe strawberry fruit was removed from overnight 4° C. dark storage and allowed to warm to room temperature prior to sensory analysis. Each panelist was given one to two whole strawberries for evaluation, depending on cultivar availability. Panelist took a bite of each sample, chewed, and swallowed it. Ratings for overall liking and liking for texture were scaled on hedonic general labeled magnitude scale (gLMS) in the context of all pleasure/displeasure experiences. […] Scales were employed to mediate valid comparisons across subjects and sessions.
For the first analysis, individual volatile compound concentrations were regressed using the “enter” method in SPSS Statistics (IBM Corp, Armonk, N.Y., USA).

| SMILES | relation to sweetness intensity independent of sugars |
| --- | --- |
| C=CC(=O)CC [1-penten-3-one] | enhance sweetness intensity |
| CCCCCCCC(=O)OCC [106-32-1, ethyl octanoate] | negatively related to sweetness |
| CC(=O)CC(C)C [108-10-1, 4-Methyl-2-pentanone] | negatively related to sweetness |
| CCCCCOC(=O)CCC [540-18-1, pentyl butyrate] | enhance sweetness intensity |
| CCCCCCCCC1CCC(=O)O1 (stereo not drawn) [2305-05-7, 5-octyldihydro-2(3H)-furanone] | enhance sweetness intensity |
| CCCCCCOC(=O)CCC [2639-63-6, hexyl butyrate] | enhance sweetness intensity |

same assay, conditions: standard least squares, sweetness intensity independent of fructose

| SMILES | FRUCTOSE t RATIO |
| --- | --- |
| CCCCCC=O [66-25-1] | 1.229 |
| CCCCCO [71-41-0] | 0.448 |
| CCCCC(=O)C(C)=O [96-04-8] | 0.142 |
| CCC(=O)CC [96-22-0] | 1.82 |
| CCCCC(CC)COC(C)=O (stereo not drawn) [103-09-3] | 0.172 |
| CCCCC(CC)CO (stereo not drawn) [104-76-7] | 1.189 |
| CCOC(=O)CC [105-37-3] | −0.623 |
| CCCOC(=O)CCC [105-66-8] | 0.88 |
| CCCCOC(=O)CC(C)C [109-19-3] | 2.005 |
| CCCCOC(=O)CCC [109-21-7] | 2.181 |
| CCCOC(C)=O [109-60-4] | −0.491 |
| CCCCCCCCCC(=O)OCC [110-38-3] | 0.281 |
| CCCCCCCCOC(=O)CCC [110-39-4] | 0.96 |
| CCCCC=O [110-62-3] | −0.572 |
| CCCCCCC=O [111-71-7] | 2.599 |
| CCCCCCCCOC(C)=O [112-14-1] | 0.413 |
| CCCCCC(=O)OCC [123-66-0] | 0.066 |
| CC(=O)OCCC(C)C [123-92-2] | −0.725 |
| CCCCCCCC=O [124-13-0] | 0.871 |
| CCCCCCCCC=O [124-19-6] | 3.696 |
| Cc1cc(C(C)(C)C)c(O)c(C(C)(C)C)c1 [128-37-0] | −0.856 |
| COC(=O)c1ccccc1N [134-20-3] | −0.009 |
| CC(=O)OCc1ccccc1 [140-11-4] | −0.361 |

| SMILES | FRUCTOSE t RATIO |
| --- | --- |
| CCCCC(=O)OCC [539-82-2] | −0.48 |
| CC1(C)C2CC=C(C=O)C1C2 (stereo not drawn) [564-94-3] | 2.588 |
| CCCC(=O)CC [589-38-8] | −0.217 |
| CCCCC(C)=O [591-78-6] | 2.807 |
| C=CC(O)CC (stereo not drawn) [616-25-1] | 1.773 |
| C/C=C/C(=O)OC [623-43-8] | 0.248 |
| CCCCC(=O)OC [624-24-8] | −0.406 |
| CCC(C)COC(C)=O (stereo not drawn) [624-41-9] | −0.433 |
| CCCCCOC(C)=O [628-63-7] | 0.882 |
| CCCCCCC1CCC(=O)O1 (stereo not drawn) [706-14-9] | 1.247 |
| CCC/C=C/CO [928-95-0] | −1.842 |
| CSC(C)=O [1534-08-3] | 0.488 |
| CC/C=C\C=O [1576-86-9] | 4.16 |
| CC/C=C/C=O [1576-87-0] | 4.566 |
| CCCCCC(=O)OC(C)C [2311-46-8] | 0.238 |
| CCCC(=O)SC [2432-51-1] | −0.956 |
| CCC/C=C/COC(C)=O [2497-18-9] | −0.313 |
| CCCCC/C=C/C=O [2548-87-0] | 1.76 |
| CCCCCCC/C=C/C=O [3913-81-3] | 3.694 |
| CCCCCCCCOC(=O)CCCCC [4887-30-3] | 0.392 |
| CCCCCCCCCCOC(=O)CCC [5454-09-1] | 1.804 |
| CCCCCC(CC)CC [5881-17-4] | 2.894 |

same assay, conditions: standard least squares, sweetness intensity independent of glucose

| SMILES | GLUCOSE t RATIO |
| --- | --- |
| CCCCCC=O [66-25-1] | 1.178 |
| CCCCCO [71-41-0] | 0.296 |
| CCCCC(=O)C(C)=O [96-04-8] | 0.002 |
| CCC(=O)CC [96-22-0] | 1.576 |
| CCCCC(CC)COC(C)=O (stereo not drawn) [103-09-3] | 0.21 |
| CCCCC(CC)CO (stereo not drawn) [104-76-7] | 0.982 |
| CCOC(=O)CC [105-37-3] | −0.674 |
| CCCOC(=O)CCC [105-66-8] | 0.638 |
| CCCCOC(=O)CC(C)C [109-19-3] | 1.954 |
| CCCCOC(=O)CCC [109-21-7] | 1.961 |
| CCCOC(C)=O [109-60-4] | −0.454 |
| CCCCCCCCCC(=O)OCC [110-38-3] | 0.055 |
| CCCCCCCCOC(=O)CCC [110-39-4] | 0.814 |
| CCCCC=O [110-62-3] | −0.568 |
| CCCCCCC=O [111-71-7] | 2.283 |
| CCCCCCCCOC(C)=O [112-14-1] | 0.284 |
| CCCCCC(=O)OCC [123-66-0] | −0.001 |
| CC(=O)OCCC(C)C [123-92-2] | −0.771 |
| CCCCCCCC=O [124-13-0] | 0.685 |
| CCCCCCCCC=O [124-19-6] | 3.402 |
| Cc1cc(C(C)(C)C)c(O)c(C(C)(C)C)c1 [128-37-0] | −1.17 |
| COC(=O)c1ccccc1N [134-20-3] | 0.2 |
| CC(=O)OCc1ccccc1 [140-11-4] | −0.513 |

| SMILES | GLUCOSE t RATIO |
| --- | --- |
| CCCCC(=O)OCC [539-82-2] | −0.802 |
| CC1(C)C2CC=C(C=O)C1C2 (stereo not drawn) [564-94-3] | 2.455 |
| CCCC(=O)CC [589-38-8] | −0.427 |
| CCCCC(C)=O [591-78-6] | 2.788 |
| C=CC(O)CC (stereo not drawn) [616-25-1] | 1.628 |
| C/C=C/C(=O)OC [623-43-8] | 0.54 |
| CCCCC(=O)OC [624-24-8] | −0.416 |
| CCC(C)COC(C)=O (stereo not drawn) [624-41-9] | −0.494 |
| CCCCCOC(C)=O [628-63-7] | 0.749 |
| CCCCCCC1CCC(=O)O1 (stereo not drawn) [706-14-9] | 0.879 |
| CCC/C=C/CO [928-95-0] | −1.521 |
| CSC(C)=O [1534-08-3] | 0.429 |
| CC/C=C\C=O [1576-86-9] | 3.915 |
| CC/C=C/C=O [1576-87-0] | 4.301 |
| CCCCCC(=O)OC(C)C [2311-46-8] | −0.058 |
| CCCC(=O)SC [2432-51-1] | −1.092 |
| CCC/C=C/COC(C)=O [2497-18-9] | −0.331 |
| CCCCC/C=C/C=O [2548-87-0] | 1.509 |
| CCCCCCC/C=C/C=O [3913-81-3] | 3.494 |
| CCCCCCCCOC(=O)CCCCC [4887-30-3] | 0.254 |
| CCCCCCCCCCOC(=O)CCC [5454-09-1] | 1.579 |
| CCCCCC(CC)CC [5881-17-4] | 2.662 |

same assay, conditions: standard least squares, sweetness intensity independent of sucrose

| SMILES | SUCROSE t RATIO |
| --- | --- |
| CCCCCC=O [66-25-1] | 0.21 |
| CCCCCO [71-41-0] | 1.938 |
| CCCCC(=O)C(C)=O [96-04-8] | −0.646 |
| CCC(=O)CC [96-22-0] | 0.912 |
| CCCCC(CC)COC(C)=O (stereo not drawn) [103-09-3] | −1.053 |
| CCCCC(CC)CO (stereo not drawn) [104-76-7] | 2.046 |
| CCOC(=O)CC [105-37-3] | 1.964 |
| CCCOC(=O)CCC [105-66-8] | 2.421 |
| CCCCOC(=O)CC(C)C [109-19-3] | 1.662 |
| CCCCOC(=O)CCC [109-21-7] | 1.65 |
| CCCOC(C)=O [109-60-4] | −0.224 |
| CCCCCCCCCC(=O)OCC [110-38-3] | 2.621 |
| CCCCCCCCOC(=O)CCC [110-39-4] | 2.645 |
| CCCCC=O [110-62-3] | 0.997 |
| CCCCCCC=O [111-71-7] | 1.342 |
| CCCCCCCCOC(C)=O [112-14-1] | 2.292 |
| CCCCCC(=O)OCC [123-66-0] | 1.064 |
| CC(=O)OCCC(C)C [123-92-2] | 0.108 |
| CCCCCCCC=O [124-13-0] | 0.169 |
| CCCCCCCCC=O [124-19-6] | 0.226 |
| Cc1cc(C(C)(C)C)c(O)c(C(C)(C)C)c1 [128-37-0] | 0.482 |
| COC(=O)c1ccccc1N [134-20-3] | 1.386 |
| CC(=O)OCc1ccccc1 [140-11-4] | −1.357 |

| SMILES | SUCROSE t RATIO |
| --- | --- |
| CCCCC(=O)OCC [539-82-2] | 2.273 |
| CC1(C)C2CC=C(C=O)C1C2 (stereo not drawn) [564-94-3] | −1.322 |
| CCCC(=O)CC [589-38-8] | 0.592 |
| CCCCC(C)=O [591-78-6] | 0.767 |
| C=CC(O)CC (stereo not drawn) [616-25-1] | 0.795 |
| C/C=C/C(=O)OC [623-43-8] | −1.396 |
| CCCCC(=O)OC [624-24-8] | 0.662 |
| CCC(C)COC(C)=O (stereo not drawn) [624-41-9] | −1.323 |
| CCCCCOC(C)=O [628-63-7] | 0.427 |
| CCCCCCC1CCC(=O)O1 (stereo not drawn) [706-14-9] | 1.65 |
| CCC/C=C/CO [928-95-0] | −0.516 |
| CSC(C)=O [1534-08-3] | 1.035 |
| CC/C=C\C=O [1576-86-9] | 0.935 |
| CC/C=C/C=O [1576-87-0] | 1.024 |
| CCCCCC(=O)OC(C)C [2311-46-8] | 2.211 |
| CCCC(=O)SC [2432-51-1] | 2.033 |
| CCC/C=C/COC(C)=O [2497-18-9] | −0.056 |
| CCCCC/C=C/C=O [2548-87-0] | 0.067 |
| CCCCCCC/C=C/C=O [3913-81-3] | 1.411 |
| CCCCCCCCOC(=O)CCCCC [4887-30-3] | 2.71 |
| CCCCCCCCCCOC(=O)CCC [5454-09-1] | 2.085 |
| CCCCCC(CC)CC [5881-17-4] | 0.608 |

— patent publication US11744273B2, “Sweetness enhancing volatile compositions and methods of increasing perceived sweetness of a comestible” (University of Florida Research Foundation, Inc., priority 2016, dated 2023)
